Measured values as given in patent publication US10046038B2, “Leptospira with increased antigenic mass” (priority 2012, dated 2018).
Like-named read-outs stand apart in the source and are kept apart here.

What was measured:
[1] = system: Leptospira serogroup Icterohaemorrhagiae; assay: Biomass (total cell count) and toxicity in fermenter culture; assay type: cell-based, L. interrogans (sensu lato); conditions: additional 400 μg/ml pure linoleic acid in ethanol; EMJH with high LA BSA
Experimental: (§1) During all fermentation experiments the temperature was controlled at about 29° C. The medium was aerated with headspace airflow, and the dissolved oxygen (pO2) concentration was controlled by automatic variation of the agitation-rate, to maintain a set pO2 concentration. Temperature, pH and pO2 concentration were monitored online, but pH and foam formation were not controlled.

[2] = system: Leptospira serogroup Grippotyphosa; assay type: cell-based, L. interrogans (sensu lato); conditions: supplementation with linoleic acid; days 4 and 5
[3] = system: Leptospira serogroup Tarassovi; assay: Biomass and toxicity in fermenter culture; assay type: cell-based, L. interrogans (sensu lato); conditions: 300 μg/ml C18:2; EMJH standard BSA
Experimental: In a supplementation similar to that described in Example 6 above, the effect of supplementation with different amounts of C18:2 fatty acid on the biomass and the antigenic mass of a culture of Leptospira serogroup Tarassovi in EMJH medium with standard BSA was tested.

[4] = system: Leptospira serogroup Tarassovi; assay type: cell-based, L. interrogans (sensu lato); conditions: EMJH standard BSA, vs unsupplemented reference culture
Experimental: (§2) All experiments were performed in 0.5, 2 or 20 L working volume, computer-controlled fermenters (Sartorius), which were filled with 0.5, 1 or 10 L sterile-filtered EMJH medium, respectively. The standard EMJH medium contained 1% w/v BSA and 0.125% w/v polysorbate 80. The pH of the medium was 7.4 ±0.1 at start. The fermenter was inoculated with 5% v/v serogroup lcterohaemorrhagiae pre-culture (passage 5), giving an inoculation density of 2-4×10^7 cells/ml at day 0.
(§3) Supplementation was done either with pure linoleic acid (Sigma Aldrich, >99% pure) as a 10% v/v stock in absolute ethanol (JT Baker). Alternatively, linoleic acid was supplemented by using a BSA that was created with a high level of linoleic acid (high LA BSA). This high LA BSA was used either to replace a standard BSA in EMJH medium, or was used in addition to BSA in the EMJH medium, in which case it was added as a 25% w/v stock solution in sterile water. The high LA BSA or the pure linoleic acid/ethanol supplements were fed to a fermenter over the course of 4 hours, at 0.1-0.2 ml/hour, until the fermenter culture had received a desired total amount of linoleic acid. Different total available levels of linoleic acid have been tested, of between about 5 and 425 μg/ml in the total volume. The fermenter cultures of Leptospira were supplemented at different cell-densities i.e. at early-, mid- or end phase culture.
(§4) Daily 5 ml samples were taken aseptically, directly from the fermenter, for analyses of total cell count (by Petroff-Hausser counting chamber); antigenic mass (by antigen amount Elisa); inactivated cells; and for profiling of the fatty acid type and-relative amounts (by gas chromatography) in the culture medium.
(§5) Samples were inactivated with 0.1 or 0.2% v/v BPL, at 29° C. for 16-24 hours. The inactivated Leptospira were tested in an antigen Elisa within 24 hours.
(§6) For a reference see: R. A. Hartskeerl et al., (International course on laboratory methods for the diagnosis of Leptospirosis, 4th Edition, 1 Apr. 2004. Royal Tropical Institute, Amsterdam).
(§7) The Elisa's were set up as capture assays, whereby the same moab was used for coating and for detection.
A reference standard was prepared for each Leptospira strain that was tested by antigen Elisa. The standard is a batch of monovalent Leptospira antigen, from inactivated cells. This was prepared using common techniques, essentially by proliferating a specific strain of Leptospira in EMJH medium as described above, and was inactivated as described before. Next the standard was concentrated and/or diluted in phosphate buffered saline, to contain about 1×10^9 cells/ml. An arbitrary number of antigen units was affixed to the sample, for example: 1000 Units/ml. When the standard needed replenishing, a subsequent preparation of the same standard, was compared and titrated alongside the old standard several times, before replacing it.
As before, the average antigenic mass score by Elisa was calculated per 1×10^9 cells (pre-inactivation). […] The average antigenic mass 1×10^9 cells of the reference culture was set at 0% increase.
Both alpha-and gamma C18:3 were purchased as pure chemicals (>98%).

[5] = system: Leptospira serogroup Icterohaemorrhagiae; assay: Antigenic mass of fermenter culture by antigen Elisa; assay type: cell-based, L. interrogans (sensu lato); conditions: for relative Ag. mass (%): non-supplemented = 100
Experimental: A working seed of a strain of L. interrogans was inoculated into EMJH medium and incubated at 29° C. for 3 to 5 days. If needed up to 5 consecutive pre-culture passages could be made, whereby the pre-cultures were visually inspected for sufficient proliferation (turbidity) as criterion for transfer to the next passage.
as §2, §1
In comparative experiments up to 4 fermenters were run in parallel, which started off simultaneously with the same medium and Leptospira inoculum. One fermenter then usually contained only standard EMJH medium and served as reference, while in the others different supplementations of polyunsaturated C18 fatty acid were made.
as §3, §4, §5, §6, §7
A reference standard was prepared for each Leptospira strain that was tested by antigen Elisa. The standard is a batch of monovalent Leptospira antigen, from inactivated cells. This was prepared using common techniques, essentially by proliferating a specific strain of Leptospira in EMJH medium as described above, and was inactivated as described before.

[6] = system: Leptospira serogroup Australis (serovar Bratislava); assay type: cell-based, L. interrogans (sensu lato); conditions: linoleic acid supplementation of low LA BSA medium
[7] = system: Leptospira; conditions: most serogroups other than Canicola; alpha or gamma isomer

`CCCCCC=CCC=CCCCCCCCC(=O)O` [linoleic acid, 9, 12-octadecadienoic acid] was tested, and the “toxicity for the bacteria (cell numbers after supplementation)” value [1] was “induced toxicity”, the “increase in the antigenic mass” value [2] was 63% and the “toxicity to the culture” value [3] was “toxic”. For the same compound, the “increase in antigenic mass per unit of biomass” value ([4]; 100 μg/ml C18:2) was 67%, the “increase in antigenic mass per unit of biomass” value ([4]; 200 μg/ml C18:2) was 99% and the “Ag. mass, Ag U/10^9 cells/ml” value ([5]; 100 μg/ml added at 1 × 10^8 cells/ml, total 105 μg/ml, average of days 4-5) was 1783 Ag U/10^9 cells/ml. For the same compound, the “relative Ag. mass (%)” value ([5]; 100 μg/ml added at 1 × 10^8 cells/ml, average of days 4-5) was 226%, the “Ag. mass, Ag U/10^9 cells/ml” value ([5]; 100 μg/ml added at 5 × 10^8 cells/ml, total 105 μg/ml, average of days 4-5) was 1564 Ag U/10^9 cells/ml and the “relative Ag. mass (%)” value ([5]; 100 μg/ml added at 5 × 10^8 cells/ml, average of days 4-5) was 198%. For the same compound, the “Ag. mass, Ag U/10^9 cells/ml” value ([5]; 100 μg/ml added at 9 × 10^8 cells/ml, total 105 μg/ml, average of days 4-5) was 1656 Ag U/10^9 cells/ml, the “relative Ag. mass (%)” value ([5]; 100 μg/ml added at 9 × 10^8 cells/ml, average of days 4-5) was 210% and the antigenic mass ([5]; 100 μg/ml pure linoleic acid in ethanol added on day 2 (mid-exponential) to EMJH with high LA BSA, average of days 3-5) was 1767 Ag. U/1×10^9 cells. The “increase in relative antigenic mass” value ([5]; 100 μg/ml single fatty acid, FIGS. 37 and 38) was 77%, the “increase of antigenic mass” value ([5]; 25 instead of 5 μg/ml linoleic acid available) was 124% and the “increase of the antigenic mass (in words)” value ([5]; additional 200 μg/ml pure linoleic acid, EMJH with high LA BSA) was “slightly less increase of the antigenic mass compared to that of the 100 μg/ml group”. For the same compound, the “Ag. mass, Ag U/10^9 cells/ml” value ([5]; supplem. pure C18:2 75 μg/ml, total 80 μg/ml, EMJH standard BSA, average of days 3-5) was 1450 Ag U/10^9 cells/ml, the “relative Ag. mass (%)” value ([5]; supplem. pure C18:2 75 μg/ml, total 80 μg/ml, average of days 3-5) was 199% and the “Ag. mass, Ag U/10^9 cells/ml” value ([5]; supplem. pure C18:2 150 μg/ml, total 155 μg/ml, EMJH standard BSA, average of days 3-5) was 1550 Ag U/10^9 cells/ml. The “relative Ag. mass (%)” value ([5]; supplem. pure C18:2 150 μg/ml, total 155 μg/ml, average of days 3-5) was 213% and the “increase in antigenic mass” value [6] was 45%.

For `CC/C=C\C/C=C\C/C=C\CCCCCCCC(=O)O` [C18:3, Linolenic acid], the “supplementation level showing cytotoxicity” value [7] was at least 200 µg/mL.
